Each structure is given as a SMILES string. Some results are limits rather than exact numbers.

As usually defined, the IC50 is the point on the concentration scale where inhibition reaches its midpoint.

The subject of the first experiment is MV-4-11 cells. Description: Cell Viability Assay in MV-4-11 Cells. Format: cell-based. The settings on record: Homo sapiens, MV4-11, 72 h. The essentials: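 Luminescent ATP read-out (CellTiter-Glo) after 72 h compound treatment of MV-4-11 leukaemia cells (7,000 per well, IMDM plus 10% FBS). Values expressed relative to DMSO control and derived by four-parameter non-linear regression.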
On to `Cn1cc(-c2ccc(C(=O)N(c3nccc4sc(-c5cnn(CC(N)=O)c5)cc34)[C@@H]3CCCNC3)c(F)c2)nn1` [Example 489, N-[2-[1-(2-amino-2-oxo-ethyl)pyrazol-4-yl]thieno[3,2-c]pyridin-4-yl]-2-fluoro-4-(1-methyltriazol-4-yl)-N-[(3R)-3-piperidyl]benzamide], for which the IC50 was above 10000 nM.

Staying with this experiment, now noted: Homo sapiens, MV4-11, 72 h, MV-4-11 cells, 72 h, Cell-Titer Glo; read-out: IC50.
For the compound `Cn1cc(-c2ccc(C(=O)N(c3nccc4sc(-c5ccc(CO)s5)cc34)[C@@H]3CCCNC3)c(F)c2)nn1` [Example 481, (R)-2-fluoro-N-(2-(5-(hydroxymethyl)thiophen-2-yl)thieno[3,2-c]pyridin-4-yl)-4-(1-methyl-1H-1,2,3-triazol-4-yl)-N-(piperidin-3-yl)benzamide], the IC50 was found to be 270 nM.

Regarding `Cn1cc(-c2ccc(C(=O)N(c3nccc4sc(-c5cnccn5)cc34)[C@@H]3CCCNC3)c(F)c2)nn1` [Example 482], the IC50 was 870 nM. As to `Cc1ncc(-c2cc3c(N(C(=O)c4ccc(-c5cn(C)nn5)cc4F)[C@@H]4CCCNC4)nccc3s2)s1` [Example 483, (R)-2-fluoro-4-(1-methyl-1H-1,2,3-triazol-4-yl)-N-(2-(2-methylthiazol-5-yl)thieno[3,2-c]pyridin-4-yl)-N-(piperidin-3-yl)benzamide], the IC50 was 340 nM. As for `Cn1cc(-c2ccc(C(=O)N(c3nccc4sc(-c5ccnc(N)n5)cc34)[C@@H]3CCCNC3)c(F)c2)nn1` [Example 484, N-[2-(2-aminopyrimidin-4-yl)thieno[3,2-c]pyridin-4-yl]-2-fluoro-4-(1-methyltriazol-4-yl)-N-[(3R)-3-piperidyl]benzamide], the IC50 amounted to 930 nM.

In the case of `Cn1cc(-c2ccc(C(=O)N(c3nccc4sc(-c5cnn(Cc6cccnc6)c5)cc34)[C@@H]3CCCNC3)c(F)c2)nn1` [Example 485, 2-fluoro-4-(1-methyltriazol-4-yl)-N-[(3R)-3-piperidyl]-N-[2-[1-(3-pyridylmethyl)pyrazol-4-yl]thieno [3,2-c]pyridin-4-yl] benzamide], the IC50 came out at 980 nM. As for `Cn1cc(-c2ccc(C(=O)N(c3nccc4sc(/C=C/C(N)=O)cc34)[C@@H]3CCCNC3)c(F)c2)nn1` [Example 486, N-[2-[(E)-3-amino-3-oxo-prop-1-enyl]thieno[3,2-c]pyridin-4-yl]-2-fluoro-4-(1-methyltriazol-4-yl)-N-[(3R)-3-piperidyl]benzamide], the IC50 was above 10000 nM. Take `Cn1cc(-c2ccc(C(=O)N(c3nccc4sc(Cc5ccccc5)cc34)[C@@H]3CCCNC3)c(F)c2)nn1` [Example 487, N-(2-benzylthieno[3,2-c]pyridin-4-yl)-2-fluoro-4-(1-methyltriazol-4-yl)-N-[(3R)-3-piperidyl]benzamide]: the IC50 amounted to 620 nM. Regarding `Cn1cc(-c2ccc(C(=O)N(c3nccc4sc(Cc5cccnc5)cc34)[C@@H]3CCCNC3)c(F)c2)nn1` [Example 488, 2-fluoro-4-(1-methyltriazol-4-yl)-N-[(3R)-3-piperidyl]-N-[2-(3-pyridylmethyl)thieno[3,2-c]pyridin-4-yl]benzamide], the IC50 was found to be 650 nM. As to `Cn1cc(-c2ccc(C(=O)N(c3nccc4cc(-c5cccc(CO)c5)ccc34)[C@@H]3CCCNC3)c(F)c2)nn1` [Example 490, (R)-2-fluoro-N-(6-(3-(hydroxymethyl)phenyl)isoquinolin-1-yl)-4-(1-methyl-1H-1,2,3-triazol-4-yl)-N-(piperidin-3-yl)benzamide], the half-maximal inhibitory concentration (IC50) was 300 nM. On to `Cn1cc(-c2ccc(C(=O)N(c3nccc4cc(-c5ccnc(N)c5)ccc34)[C@@H]3CCCNC3)c(F)c2)nn1` [Example 491, (R)—N-(6-(2-aminopyridin-4-yl)isoquinolin-1-yl)-2-fluoro-4-(1-methyl-1H-1,2,3-triazol-4-yl)-N-(piperidin-3-yl)benzamide], for which the IC50 was 460 nM. In the case of `Cn1cc(-c2ccc(C(=O)N(c3nccc4cc(-c5cnn(CCO)c5)ccc34)[C@@H]3CCCNC3)c(F)c2)nn1` [Example 492, (R)-2-fluoro-N-(6-(1-(2-hydroxyethyl)-1H-pyrazol-4-yl)isoquinolin-1-yl)-4-(1-methyl-1H-1,2,3-triazol-4-yl)-N-(piperidin-3-yl)benzamide], the IC50 is 870 nM. For `Cn1cc(-c2ccc(C(=O)N(c3nccc4cc(-c5ccccc5O)ccc34)[C@@H]3CCCNC3)c(F)c2)nn1` [Example 493, (R)-2-fluoro-N-(6-(2-hydroxyphenyl)isoquinolin-1-yl)-4-(1-methyl-1H-1,2,3-triazol-4-yl)-N-(piperidin-3-yl)benzamide], the IC50 came out at 530 nM.

As to `Cn1cc(-c2ccc(C(=O)N(c3nccc4cc(/C=C/C(=O)O)ccc34)[C@@H]3CCCNC3)c(F)c2)nn1` [Example 494, (R,E)-3-(1-(2-fluoro-4-(1-methyl-1H-1,2,3-triazol-4-yl)-N-(piperidin-3-yl)benzamido)isoquinolin-6-yl)acrylic acid], the IC50 is above 10000 nM. Take `Cn1cc(-c2ccc(C(=O)N(c3nccc4cc(-c5cccc(O)c5)ccc34)[C@@H]3CCCNC3)c(F)c2)nn1` [Example 495, (R)-2-fluoro-N-(6-(3-hydroxyphenyl)isoquinolin-1-yl)-4-(1-methyl-1H-1,2,3-triazol-4-yl)-N-(piperidin-3-yl)benzamide]: the IC50 was determined as 660 nM. Consider `Cn1cc(-c2ccc(C(=O)N(c3nccc4cc(/C=C/C(N)=O)ccc34)[C@@H]3CCCNC3)c(F)c2)nn1` [Example 496, (R,E)-N-(6-(3-amino-3-oxoprop-1-en-1-yl)isoquinolin-1-yl)-2-fluoro-4-(1-methyl-1H-1,2,3-triazol-4-yl)-N-(piperidin-3-yl)benzamide], for which the IC50 was determined as 5400 nM. Turning to `Cc1cccc2ccnc(N(C(=O)N3CCCC(CCC(=O)Nc4ccncc4)C3)[C@@H]3CCCNC3)c12` (stereo partly drawn) [Example 497, N-(8-methylisoquinolin-1-yl)-3-(3-oxo-3-(pyridin-4-ylamino)propyl)-N—((R)-piperidin-3-yl)piperidine-1-carboxamide], the IC50 turned out to be 2000 nM.

Turning to `Cc1cccc2ccnc(N(C(=O)N3CCCC(CCC(=O)Nc4ccc5[nH]ncc5c4)C3)[C@@H]3CCCNC3)c12` (stereo partly drawn) [Example 498, 3-(3-((1H-indazol-5-yl)amino)-3-oxopropyl)-N-(8-methylisoquinolin-1-yl)-N—((R)-piperidin-3-yl)piperidine-1-carboxamide], the IC50 is 2000 nM. The same measure, in the same setting: next, `Cc1cccc2ccnc(N(C(=O)N3CCCC(CCC(=O)Nc4ccc5cn[nH]c5c4)C3)[C@@H]3CCCNC3)c12` (stereo partly drawn) [Example 499, 3-(3-((1H-indazol-6-yl)amino)-3-oxopropyl)-N-(8-methylisoquinolin-1-yl)-N—((R)-piperidin-3-yl)piperidine-1-carboxamide]: 1700 nM; `O=C(O)/C=C/c1cc2c(N(C(=O)c3ccc(-n4nnc5cccnc54)cc3F)[C@@H]3CCCNC3)nccc2s1` [Example 500, (E)-3-[4-[[2-fluoro-4-(triazolo[4,5-b]pyridin-3-yl)benzoyl]-[(3R)-3-piperidyl]amino]thieno[3,2-c]pyridin-2-yl]prop-2-enoic acid]: above 10000 nM; `CCOC(=O)/C=C/c1cc2c(N(C(=O)c3ccc(-n4nnc5cccnc54)cc3F)[C@@H]3CCCNC3)nccc2s1` [Example 501, ethyl (E)-3-[4-[[2-fluoro-4-(triazolo[4,5-b]pyridin-3-yl)benzoyl]-[(3R)-3-piperidyl]amino]thieno[3,2-c]pyridin-2-yl]prop-2-enoate]: 800 nM. For the compound `O=C(O)c1nc(-c2cc3c(N(C(=O)c4ccc(-n5nnc6cccnc65)cc4F)[C@@H]4CCCNC4)nccc3s2)cs1` [Example 502, 4-[4-[[2-fluoro-4-(triazolo[4,5-b]pyridin-3-yl)benzoyl]-[(3R)-3-piperidyl]amino]thieno[3,2-c]pyridin-2-yl]thiazole-2-carboxylic acid], the IC50 amounted to 2100 nM. Take `O=C(c1ccc(-n2nnc3cccnc32)cc1F)N(c1nccc2sc(CCc3ccncc3)cc12)[C@@H]1CCCNC1` [Example 503, 2-fluoro-N-[(3R)-3-piperidyl]-N-[2-[2-(4-pyridyl)ethyl]thieno[3,2-c]pyridin-4-yl]-4-(triazolo[4,5-b]pyridin-3-yl)benzamide]: the IC50 is 2300 nM.

Turning to `Cn1cc(-c2ccc(C(=O)N(c3nccc4sc(/C=C\CO)cc34)[C@@H]3CCCNC3)c(F)c2)nn1` [Example 504, (R,Z)-2-fluoro-N-(2-(3-hydroxyprop-1-en-1-yl)thieno[3,2-c]pyridin-4-yl)-4-(1-methyl-1H-1,2,3-triazol-4-yl)-N-(piperidin-3-yl)benzamide], the IC50 was 810 nM.

As for `Cn1cc(-c2ccc(C(=O)N(c3nccc4cc(-c5ccncc5)sc34)[C@@H]3CCCNC3)c(F)c2)nn1` [Example 505, 2-fluoro-4-(1-methyltriazol-4-yl)-N-[(3R)-3-piperidyl]-N-[2-(4-pyridyl)thieno[2,3-c]pyridin-7-yl]benzamide], the IC50 was 250 nM. Same read-out and setting: with `Cn1cc(-c2ccc(C(=O)N(c3nccc4sc(Br)cc34)[C@@H]3CCCNC3)c(F)c2)nn1` [Example 506, N-(2-bromothieno[3,2-c]pyridin-4-yl)-2-fluoro-4-(1-methyltriazol-4-yl)-N-[(3R)-3-piperidyl] benzamide] the figure was 710 nM; with `Cn1cc(-c2ccc(C(=O)N(c3nccc4sc(-c5ccccn5)cc34)[C@@H]3CCCNC3)c(F)c2)nn1` [Example 507, 2-fluoro-4-(1-methyltriazol-4-yl)-N-[(3R)-3-piperidyl]-N-[2-(2-pyridyl)thieno [3,2-c]pyridin-4-yl] benzamide], 610 nM; with `Cn1cc(-c2ccc(C(=O)N(c3nccc4sc(-c5cccnc5)cc34)[C@@H]3CCCNC3)c(F)c2)nn1` [Example 508, 2-fluoro-4-(1-methyltriazol-4-yl)-N-[(3R)-3-piperidyl]-N-[2-(3-pyridyl)thieno [3,2-c]pyridin-4-yl] benzamide], 300 nM.

In the case of `Cn1cc(-c2ccc(C(=O)N(c3nccc4sc(-c5cccc(N)c5)cc34)[C@@H]3CCCNC3)c(F)c2)nn1` [Example 509, N-[2-(3-aminophenyl)thieno[3,2-c]pyridin-4-yl]-2-fluoro-4-(1-methyltriazol-4-yl)-N-[(3R)-3-piperidyl]benzamidezamide], the IC50 worked out at 520 nM.
